Tested on: gentamicin resistant Escherichia coli
Test: Rat sepsis model, mortality vs. saline control (Example 15)
Type: in vivo, Wistar rats
Details: Gentamicin 2 mg, gel 2 ml I.M., 24 hours before challenge, Group D mixture, timing not given
Description: The model system utilizes Wistar rats surgically implanted with an inoculum of intestinal contents from other rats. The inoculum is prepared in a manner which simulates the microbiologic parameters of the human colon. This is accomplished by placing rats on a diet of lean ground beef for two weeks, and then harvesting, homogenizing and freezing aliquots of prepared intestinal contents for subsequent use. The clinical end points for evaluation in this model are mortality, while microbiologic end points include blood and peritoneal cultures. The general experimental design and methods are as follows.
Male, Wistar, virus antibody free (VAF) rats (Charles River Laboratories, Wilmington, Mass.), weighing 175-200 grams, are utilized for all experiments. All animals are housed, five per cage, within a VAF facility, and given food and water ad libitum, except for those animals used for preparation of the meat-fed cecal inoculum (see below). Animal experiments are carried out according to the guidelines of the Harvard Medical Area Standing Committee on Animals, in facilities accredited by the American Association for the Accreditation of Laboratory Animal Care.
The innoculum for this study is prepared as described in A. Onderdonk et al., Experimental intra-abdominal abscesses in rats; quantitative bacteriology of infected animals. Infection and Immunity, 10:1256-9 (1974); and A. Onderdonk et al., Experimental intra-abdominal abscesses in rats: development of animal model. Infection and Immunity, 10:1256-1259 (1974). Briefly, cecal contents from meat-fed rats are combined with peptone-yeast-glucose broth to form a slurry. This slurry is filtered through gauze to remove large particulate material, aliquoted and frozen at −80° C. until used. Preliminary testing of this inoculum is performed to determine the proper dilution of the inoculum to yield a mortality of 60%-70% in an untreated group.
Animals are anesthetized with Nembutal (50 mg/Kg), and prepared for surgical implantation of the inoculum by shaving the abdomen and applying an iodine solution. A 3-4 cm midline incision is made through the skin and anterior abdominal wall, and a gelatin capsule containing 0.5 mL of the inoculum is inserted into the pelvic region. The incision is closed with one 3-0 suture, and the animals are observed four times per day for the first 48 hours, and every eight hours thereafter. Visibly moribund animals are humanely sacrificed with CO2.
Groups of twenty animals each are implanted with the inoculum described above. For each experiment, a control group of sham-treated animals is employed. For experiments in which quantitative blood and peritoneal cultures are obtained, sufficient additional animals are implanted to allow for such cultures, but mortality in these groups is not included in the clinical outcome calculations, due to the additional manipulation of the animals. Surviving animals from each group are sacrificed after seven days.
A comparison of groups with regard to mortality is made by chi-square analysis as supplied on commercially available statistical software (Instat, GraphPad Software, San Diego, Calif.). A comparison group mean bacterial count is made using Student's T test.
Animals were divided into Groups A, B, C and D, with each Group containing 15 animals. All groups were challenged with 2.629 ml gentamicin resistant Escherichia coli, 0.32 ml Dextran Sulfate, and 29.051 ml Peptone Yeast Glucose. Group A was treated 2 hours after challenge, while Groups B and C were treated 24 hours before challenge. Group A was treated with 2 ml saline I.M.; Group B was treated with 2 mg Gentamicin; Group C was treated with 2 ml HA/CMC/EDC gel I.M.; and Group D was treated with a mixture of Gentamicin and HA/CMC/EDC gel.
The animals were held for 48 hours, and assessed for mortality vs. the saline control.

In the case of Gentamicin, the “% mortality” value (24 hr) is reported as 23.1%, the “mortalities (M)” value (24 hr) is reported as 3 and the “surviving animals (A)” value (24 hr) is reported as 10. For the same substance, the “% mortality” value (48 hr) was 38.5%, the “mortalities (M)” value (48 hr) was 2 and the “surviving animals (A)” value (48 hr) was 8. The “% mortality” value (Total) was 38.5%, the “mortalities (M)” value (Total) was 5 and the “surviving animals (A)” value (Total) was 8.
